Source: patent US8912202B2, “N-(benzimimdazol-2-yl)-cyclopropane carboxamides as lysophosphatidic acid antagonists” (Merck Patent GmbH, priority 2011, dated 2014)

What follows are compounds tested against T1, LPA2R (Homo sapiens, UniProt Q9HBW0) (assay: LPA2R-Calciumflux assay (FLIPR, intracellular calcium mobilisation after LPA)). Settings: U2OS cells recombinant expressing LPA2R; antagonism of LPA-induced calcium flux; racemate of the two trans enantiomers unless marked enantiomer.
T1 construct: expressed in transfected cells; host or cells: U2OS
T1 sequence (Q9HBW0 whole entry): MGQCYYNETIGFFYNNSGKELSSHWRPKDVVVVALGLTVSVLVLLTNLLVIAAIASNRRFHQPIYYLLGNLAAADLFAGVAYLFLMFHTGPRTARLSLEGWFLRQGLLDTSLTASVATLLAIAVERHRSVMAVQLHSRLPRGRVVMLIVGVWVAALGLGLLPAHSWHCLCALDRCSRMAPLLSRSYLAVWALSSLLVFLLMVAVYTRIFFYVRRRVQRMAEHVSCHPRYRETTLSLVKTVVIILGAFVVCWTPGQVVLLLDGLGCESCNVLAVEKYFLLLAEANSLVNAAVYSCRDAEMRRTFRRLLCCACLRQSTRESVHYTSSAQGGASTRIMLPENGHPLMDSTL
Type: cell-based
Description: The assay detects intra cellular calcium which is generated by cells upon activation of the LPA2 receptor by its ligand LPA. This transient calcium mobilization can be monitored using a commercial calcium detection kit (e.g. from Molecular Devices). The main component of such a kit is a dye, which becomes fluorescent when calcium is present—a transient fluorescence signal after addition of a ligand to a test well are the result. Readers like the FLIPR (Molecular Devices) can be used to monitor such transient “Ca-flux” signals.
The signals are calculated according to peak maximum minus base line.
Compounds which are antagonists of LPA lead to a decreased mobilisation of intracellular calcium and thus to a lower signal. The assay is performed in microplates (384 wells per plate).
LPA2R-Calciumflux Assay Protocol
The assay is run according to the following procedure:
50 uL seed cells (10000 cells/well in DMEM buffer)
• Incubate 24 h at 37° C., 10% CO2 • aspirate medium 50 uL add calcium dye 1×HBSS/HEPES buffer • incubate 1 h at 37° C. (“loading”) • equilibrate 10 min at RT 5 uL add compounds in HEPES buffer • shake 10 sec. at 1000 rpm • incubate 15 min at RT 20 uL add LPA (in the FLIPR Tetra) in Krebs-buffer/BSA & measurement
The cells are seeded in DMEM buffer (DMEM, 10% FCS, 10 mM HEPES, 1% Pen/Strep).
Dye loading is done in HBSS/HEPES buffer (100 mL 10×HBSS+20 mL 1M HEPES+880 mL water, pH 7.4)
The LPA is added in Krebs/BSA buffer (120 mM NaCl, 5 mM KCl, 0.62 mM MgSO4, 1.8 mM CaCl2, 10 mM HEPES, 6 mM D(+)-Glucose, 0.2% BSA, pH 7.4).
The compounds are pre-diluted in HEPES buffer (20 mM, pH 7.4), whereby the final DMSO content in the assay is kept at 1%. The compounds are pre-diluted in order to generate dose response series on the microplates. The dose response series consist of 10 concentrations for each compound from 30 uM final to 1 nM final. From all compound wells the resulting signals are referred to control wells (located on each plate besides the compound wells) in terms of % activity.
From these % activity values—along with the corresponding compound concentrations—IC50 values are fitted for each compound using standard fitting programs such as Graphpad Prism. Here the method “log(inhibitor) vs. response—Variable slope” is used.

Row | SMILES | IC50 [µM]
1 | O=C(Nc1n[nH]c2ccccc12)C1CC1c1ccccc1 (racemic) [2-Phenyl-cyclopropane-carboxylic acid (1H-indazol-3-yl)-amide] | > 10
2 | CCCS(=O)(=O)c1ccc2[nH]c(NC(=O)C3CC3c3ccccc3)nc2c1 (racemic) [2-Phenyl-cyclopropane-carboxylic acid [5-(propane-1-sulfonyl)-1H-benzoimidazol-2-yl]-amide] | 1 to 10
3 | O=C(O)c1ccc2[nH]c(NC(=O)C3CC3c3ccccc3)nc2c1 (racemic) [2-[(2-Phenyl-cyclopropane-carbonyl)-amino]-1H-benzoimidazole-5-carboxylic acid] | > 10
4 | CN(C)c1cccc(C2CC2C(=O)Nc2nc3ccccc3[nH]2)c1 (racemic) [2-(3-Dimethylamino-phenyl)-cyclopropane-carboxylic acid (1H-benzoimidazol-2-yl)-amide] | 0.1 to 1
5 | Cc1cccc2nc(NC(=O)C3CC3c3ccccc3)[nH]c12 (racemic) [2-Phenyl-cyclopropane-carboxylic acid (7-methyl-1H-benzoimidazol-2-yl)-amide] | 0.1 to 1
6 | O=C(Nc1nc2cc(OCCN3CCCC3)ccc2[nH]1)C1CC1c1ccccc1 (single isomer, unassigned; enantiomer-2) [enantiomer-2-Phenyl-cyclopropane-carboxylic acid [5-(2-pyrrolidin-1-yl-ethoxy)-1H-benzoimidazol-2-yl]-amide] | 1 to 10
7 | O=C(Nc1nc2ccccc2[nH]1)C1CC1c1ccccc1C(F)(F)F (racemic) [2-(2-Trifluoromethyl-phenyl)-cyclopropane-carboxylic acid (1H-benzoimidazol-2-yl)-amide] | > 10
8 | CC1(C)C(C(=O)Nc2nc3ccccc3[nH]2)C1c1ccccc1 (racemic) [2,2-Dimethyl-3-phenyl-cyclopropane-carboxylic acid (1H-benzoimidazol-2-yl)-amide] | > 10
9 | O=C(Nc1nc2c([N+](=O)[O-])cc(C(F)(F)F)cc2[nH]1)C1CC1c1ccccc1 (racemic) [2-Phenyl-cyclopropane-carboxylic acid (4-nitro-6-trifluoromethyl-1H-benzoimidazol-2-yl)-amide] | 0.1 to 1
10 | O=C(Nc1nc2ccccc2[nH]1)C1CC1c1ccccc1F (racemic) [2-(2-Fluoro-phenyl)-cyclopropane-carboxylic acid (1H-benzoimidazol-2-yl)-amide] | 0.1 to 1
11 | O=C(Nc1nc2ccncc2[nH]1)C1CC1c1ccccc1 (racemic) [2-Phenyl-cyclopropane-carboxylic acid (3H-imidazo[4,5-c]pyridin-2-yl)-amide] | > 10
12 | Cn1c(NC(=O)C2CC2c2ccccc2)nc2ccccc21 (racemic) [2-Phenyl-cyclopropane-carboxylic acid (1-methyl-1H-benzoimidazol-2-yl)-amide] | > 10
13 | CC(C)(C)OC(=O)NCc1ccc2[nH]c(NC(=O)C3CC3c3ccccc3)nc2c1 (racemic) [{2-[(2-Phenyl-cyclopropane-carbonyl)-amino]-1H-benzoimidazol-5-ylmethyl}-carbamic acid tert-butyl ester] | 0.1 to 1
14 | O=C(Nc1nc2ccc(C(F)(F)F)cc2[nH]1)C1C(c2ccccc2)C1(F)F (racemic) [2,2-Difluoro-3-phenyl-cyclopropane-carboxylic acid (6-trifluoromethyl-1H-benzoimidazol-2-yl)-amide] | 0.1 to 1
15 | O=C(Nc1nc2ccccc2[nH]1)C1CC1c1ccc(Cl)cc1 (racemic) [2-(4-Chloro-phenyl)-cyclopropane-carboxylic acid (1H-benzoimidazol-2-yl)-amide] | > 10

Next, values leading:

Row | IC50 [µM] | SMILES
16 | 0.01 to 0.1 | Cc1cccc(C2CC2C(=O)Nc2nc3ccccc3[nH]2)c1 (racemic) [2-m-Tolyl-cyclopropane-carboxylic acid (1H-benzoimidazol-2-yl)-amide]
17 | 0.1 to 1 | COC(=O)c1cccc2[nH]c(NC(=O)C3CC3c3ccccc3)nc12 (racemic) [2-[(2-Phenyl-cyclopropane-carbonyl)-amino]-1H-benzoimidazole-4-carboxylic acid methyl ester]
18 | 0.01 to 0.1 | O=C(Nc1nc2ccnc(Cl)c2[nH]1)C1CC1c1ccccc1 (single isomer, unassigned; enantiomer-2) [enantiomer-2-Phenyl-cyclopropane-carboxylic acid (4-chloro-3H-imidazo[4,5-c]pyridin-2-yl)-amide]
19 | 0.01 to 0.1 | CCc1ccc2[nH]c(NC(=O)C3CC3c3ccccc3)nc2c1 (racemic) [2-Phenyl-cyclopropane-carboxylic acid (5-ethyl-1H-benzoimidazol-2-yl)-amide]
20 | 0.01 to 0.1 | O=C(Nc1nc2ccccc2[nH]1)C1CC1c1cccc(F)c1 (racemic) [2-(3-Fluoro-phenyl)-cyclopropane-carboxylic acid (1H-benzoimidazol-2-yl)-amide]
21 | 0.01 to 0.1 | N#Cc1ccc2nc(NC(=O)C3CC3c3ccccc3)[nH]c2c1 (single isomer, unassigned; enantiomer-2) [drawing 71, enantiomer-2-Phenyl-cyclopropane-carboxylic acid (6-cyano-1H-benzoimidazol-2-yl)-amide]
22 | 0.1 to 1 | O=C(Nc1nc2ccc(Cl)cc2[nH]1)C1CC1c1ccccc1Cl (single isomer, unassigned; enantiomer-2) [enantiomer-2-(2-Chloro-phenyl)-cyclopropane-carboxylic acid (6-chloro-1H-benzoimidazol-2-yl)-amide]
23 | 0.1 to 1 | CN(C)c1ccccc1C1CC1C(=O)Nc1nc2ccccc2[nH]1 (racemic) [2-(2-Dimethylamino-phenyl)-cyclopropane-carboxylic acid (1H-benzoimidazol-2-yl)-amide]
24 | < 0.01 | O=C(Nc1nc2ccccc2[nH]1)C1CC1c1ccccc1 (single isomer, unassigned; enantiomer-2) [drawing 59, enantiomer-2-Phenyl-cyclopropane-carboxylic acid (1H-benzoimidazol-2-yl)-amide]
25 | 0.01 to 0.1 | O=C(Nc1nc2ccccc2[nH]1)C1CC1c1ccccc1Cl (racemic) [2-(2-Chloro-phenyl)-cyclopropane-carboxylic acid (1H-benzoimidazol-2-yl)-amide]
26 | < 0.01 | O=C(Nc1nc2cc(Br)cnc2[nH]1)C1CC1c1ccccc1 (racemic) [2-Phenyl-cyclopropane-carboxylic acid (6-bromo-3H-imidazo[4,5-b]pyridin-2-yl)-amide]
27 | 0.01 to 0.1 | O=C(Nc1nc2c([N+](=O)[O-])cccc2[nH]1)C1CC1c1ccccc1 (racemic) [2-Phenyl-cyclopropane-carboxylic acid (4-nitro-1H-benzoimidazol-2-yl)-amide]
28 | 0.01 to 0.1 | O=C(Nc1nc2cccnc2[nH]1)C1CC1c1ccccc1 (racemic) [2-Phenyl-cyclopropane-carboxylic acid (3H-imidazo[4,5-b]pyridin-2-yl)-amide]
29 | 0.1 to 1 | O=C(Nc1nc2c(OCCN3CCCC3)cccc2[nH]1)C1CC1c1ccccc1 (single isomer, unassigned; enantiomer-2) [enantiomer-2-Phenyl-cyclopropane-carboxylic acid [4-(2-pyrrolidin-1-yl-ethoxy)-1H-benzoimidazol-2-yl]-amide]
30 | 0.01 to 0.1 | O=C(Nc1nc2ccccc2[nH]1)C1CC1c1ccccc1Cl (single isomer, unassigned) [enantiomer-2-(2-Chloro-phenyl)-cyclopropane-carboxylic acid (1H-benzoimidazol-2-yl)-amide]
31 | 0.01 to 0.1 | O=C(Nc1nc2ccccc2[nH]1)C1CC1c1cccc([N+](=O)[O-])c1 (racemic) [2-(3-Nitro-phenyl)-cyclopropane-carboxylic acid (1H-benzoimidazol-2-yl)-amide]
32 | 0.01 to 0.1 | O=C(Nc1nc2ccc(Cl)cc2[nH]1)C1C(c2ccccc2)C1(F)F (racemic) [2,2-Difluoro-3-phenyl-cyclopropane-carboxylic acid (6-chloro-1H-benzoimidazol-2-yl)-amide]
33 | 0.01 to 0.1 | Cc1cc2nc(NC(=O)C3CC3c3ccccc3)[nH]c2cc1C (racemic) [2-Phenyl-cyclopropane-carboxylic acid (5,6-dimethyl-1H-benzoimidazol-2-yl)-amide]
34 | 0.01 to 0.1 | COc1ccc2[nH]c(NC(=O)C3CC3c3ccccc3)nc2c1 (racemic) [2-Phenyl-cyclopropane-carboxylic acid (5-methoxy-1H-benzoimidazol-2-yl)-amide]
35 | < 0.01 | N#Cc1ccc2nc(NC(=O)C3CC3c3cccc(F)c3)[nH]c2c1 (racemic) [2-(3-Fluoro-phenyl)-cyclopropane-carboxylic acid (6-cyano-1H-benzoimidazol-2-yl)-amide]
